The text below walks through data of publication PMC3242598, “Phase I study of BIBF 1120 with docetaxel and prednisone in metastatic chemo-naive hormone-refractory prostate cancer patients” (British Journal of Cancer, 2011).

Data set [1] is described as follows: Plasma pharmacokinetics of docetaxel (HPLC-MS/MS). It counts as in vivo. The settings on record: human, docetaxel 75 mg m^−2 IV + BIBF 1120 250 mg BID; for half-life: read-out: t1/2, gMean (gCV%) (converted); for Tmax / AUC(0-inf) / Cmax: iv; for Tmax: read-out: tmax, median and range; for AUC(0-inf): read-out: AUC0−∞, gMean (gCV%); for Cmax: read-out: Cmax, gMean (gCV%). The protocol:
Peripheral blood was collected on days 1, 2, 3, 8, and 15 of TCs 1 and 2, and on days 2 and 15 of TCs 3–6 to perform the PK/pharmacodynamic (PD) analysis. Plasma concentrations of BIBF 1120 were determined after the first dose over the time interval 0–24 h on day 2 of TCs 1 and 2 to investigate single-dose PK characteristics of BIBF 1120 on the day after administration of single doses of docetaxel. Levels of BIBF 1120 were also determined on days 8 and 15 of TCs 1 and 2 to investigate steady-state levels.
Plasma concentrations of BIBF 1120 and docetaxel were analysed by a validated method using high-performance liquid chromatography coupled with tandem mass spectrometry (HPLC-MS/MS) in the Department of Drug Metabolism and Pharmacokinetics (Boehringer Ingelheim Pharma GmbH & Co KG, Biberach, Germany). The assay comprises sample clean-up by automated solid-phase extraction in a 96-well plate format. Chromatography was achieved on an analytical C18 reversed phase HPLC column with gradient elution. The substance was detected and quantified by HPLC-MS/MS using electrospray ionisation in the positive ion mode. Docetaxel was analysed by HPLC-MS/MS using paclitaxel as an internal standard. The assay comprises sample clean-up by liquid–liquid extraction and chromatography on an analytical C18 reversed phase HPLC column with isocratic elution. […] The lower limit of quantification for BIBF 1120 and metabolites was 0.5 ng ml^−1 plasma, using a plasma volume of 200 μl. For docetaxel, the lower limit was 2.5 ng ml^−1 plasma, using a plasma volume of 100 μl.
The calculated parameters were plasmatic peak concentrations following the first dose (Cmax), half-life time (t1/2), area under the plasma concentration–time curve (AUCt), apparent clearance after oral administration, and apparent volume of distribution during the terminal phase.

Another data set has as its system HRPC. The settings on record: cited from earlier work.

Like-named read-outs stand apart in the source and are kept apart here.

In the case of `CC(=O)O[C@@]12CO[C@@H]1C[C@H](O)[C@@]1(C)C(=O)[C@H](O)C3=C(C)[C@@H](OC(=O)[C@H](O)[C@@H](NC(=O)OC(C)(C)C)c4ccccc4)C[C@@](O)([C@@H](OC(=O)c4ccccc4)[C@H]21)C3(C)C` [docetaxel], in data set [1] (treatment cycle 2 (n=12)), the half-life is 19.4 h and the Tmax is 1.01 h. The Tmax in data set [1] (treatment cycle 1 (n=12)) was determined as 1.02 h. In data set [1] (male, treatment cycle 1 (n=12)), the half-life was 20.2 h, the AUC(0-inf) was found to be 1860 ng·h/mL and the Cmax came to 1510 ng/mL. Besides, in data set [1] (male, treatment cycle 2 (n=12)), the AUC(0-inf) is 2460 ng·h/mL and the peak concentration (Cmax) came out at 1980 ng/mL. For the same compound, the PSA responses with HRPC (docetaxel monotherapy or with estramustine, phase III, first-line metastatic HRPC, ref Petrylak et al, 2004, Tannock et al) is 45–50%. The Median survival in the data set on HRPC (docetaxel with corticosteroid in HRPC, ref Petrylak et al, 2004, Tannock et al, Berthold et al, 2008) is under 20 months.

For `CCN(CC)CCNC(=O)c1c(C)[nH]c(/C=C2\C(=O)Nc3ccc(F)cc32)c1C` [sunitinib], the PSA response rates with HRPC (HRPC patients, ref Chi et al, 2008, Dror Michaelson et al, 2009, Sonpavde et al, 2010) is listed as 3.6–12.1%.
